This note sets out measurements from patent US9688710B2, “Inhibitors of sodium glucose cotransporter 1” (LEXICON PHARMACEUTICALS, INC., priority 2012, dated 2017).

Test [1] concerns the target Human sodium/glucose co-transporter type 1 (SGLT1) (Homo sapiens (Human), UniProt P13866). As to the kind of experiment: In vitro human SGLT1 inhibition assay (14C-AMG uptake). As to conditions: HEK293 cells expressing human HA-SGLT1, 14C-AMG uptake. In kind it is cell-based. An outline of the steps:
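Uptake of 14C-AMG (100 nCi) was measured by scintillation counting after 1–2 h at 37 °C, 5% CO2, with or without compound. The buffer was pH 7.3 with 140 mM NaCl, 1 mM CaCl2, 1 mM MgCl2 and 1 mg/mL BSA. Cells were a stable HEK293 line carrying HA-SGLT1 (human), plated overnight at 30,000 per well.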

The target in test [2] is Human sodium/glucose co-transporter type 2 (SGLT2) (Homo sapiens (Human), UniProt P31639). As to the kind of experiment: In vitro human SGLT2 inhibition assay (14C-AMG uptake). It is filed as cell-based. The following applies: HEK293 cells expressing human HA-SGLT2, 14C-AMG uptake. An outline of the steps: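 Uptake of 14C-AMG (100 nCi) was followed in a stable HEK293 HA-SGLT2 line over 1-2 h at 37 °C with or without compound. Buffer: 140 mM NaCl, 10 mM HEPES, 5 mM Tris, 1 mg/mL BSA, pH 7.3. Readout was scintillation counting after washing.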
Sequence of Human sodium/glucose co-transporter type 2 (SGLT2) (P31639 whole entry): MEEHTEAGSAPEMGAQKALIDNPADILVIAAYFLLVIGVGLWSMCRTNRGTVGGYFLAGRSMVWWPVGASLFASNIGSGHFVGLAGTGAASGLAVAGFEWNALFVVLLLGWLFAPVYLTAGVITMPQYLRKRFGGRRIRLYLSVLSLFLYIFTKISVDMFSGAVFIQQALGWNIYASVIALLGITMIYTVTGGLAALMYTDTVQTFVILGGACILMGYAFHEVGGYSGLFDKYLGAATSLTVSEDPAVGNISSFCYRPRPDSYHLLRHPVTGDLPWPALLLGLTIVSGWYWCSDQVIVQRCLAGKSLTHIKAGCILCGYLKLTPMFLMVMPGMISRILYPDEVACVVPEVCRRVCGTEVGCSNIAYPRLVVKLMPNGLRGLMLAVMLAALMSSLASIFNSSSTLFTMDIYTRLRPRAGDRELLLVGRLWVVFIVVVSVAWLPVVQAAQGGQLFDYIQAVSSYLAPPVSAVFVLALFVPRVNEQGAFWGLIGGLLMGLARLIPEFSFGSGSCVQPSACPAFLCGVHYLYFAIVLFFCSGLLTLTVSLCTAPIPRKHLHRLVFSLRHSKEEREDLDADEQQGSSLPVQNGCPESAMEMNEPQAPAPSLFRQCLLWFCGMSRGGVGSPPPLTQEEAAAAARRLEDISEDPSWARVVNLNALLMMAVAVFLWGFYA

Sequence of Human sodium/glucose co-transporter type 1 (SGLT1) (P13866 whole entry): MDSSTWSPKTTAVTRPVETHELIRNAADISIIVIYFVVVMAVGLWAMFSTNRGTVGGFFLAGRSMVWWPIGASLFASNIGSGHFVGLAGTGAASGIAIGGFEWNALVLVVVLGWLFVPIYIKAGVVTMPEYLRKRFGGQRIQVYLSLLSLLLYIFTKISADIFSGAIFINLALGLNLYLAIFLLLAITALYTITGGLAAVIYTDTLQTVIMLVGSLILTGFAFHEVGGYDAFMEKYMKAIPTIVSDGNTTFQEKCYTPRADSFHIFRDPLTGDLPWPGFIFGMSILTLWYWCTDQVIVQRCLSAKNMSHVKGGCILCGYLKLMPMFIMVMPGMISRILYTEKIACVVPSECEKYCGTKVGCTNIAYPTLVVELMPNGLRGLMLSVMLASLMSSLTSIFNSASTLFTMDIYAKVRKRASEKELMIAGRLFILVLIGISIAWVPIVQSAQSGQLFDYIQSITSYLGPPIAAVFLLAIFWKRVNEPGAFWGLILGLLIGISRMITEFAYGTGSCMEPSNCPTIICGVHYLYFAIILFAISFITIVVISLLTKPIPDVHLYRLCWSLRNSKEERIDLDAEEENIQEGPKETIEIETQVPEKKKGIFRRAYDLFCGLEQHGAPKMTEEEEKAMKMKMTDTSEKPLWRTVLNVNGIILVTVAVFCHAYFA

One may read the IC50 as the point on the concentration scale where inhibition reaches its midpoint. `CS[C@H]1O[C@@H](c2ccc(C)c(Cc3ccc(CCCCC(=O)NC(C)(C)C(N)=O)cc3)c2)[C@H](O)[C@@H](O)[C@@H]1O` [N-(1-amino-2-methyl-1-oxopropan-2-yl)-5-(4-(2-methyl-5-((2S,3R,4R,5S,6R)-3,4,5-trihydroxy-6-(methylthio)tetrahydro-2H-pyran-2-yl)benzyl)phenyl)pentanamide]: the IC50 in test [1] and in test [2] was < 10 nM each time.
Take `CS[C@H]1O[C@@H](c2ccc(C)c(Cc3ccc(CCCCCC(=O)NC(C)(C)C(N)=O)cc3)c2)[C@H](O)[C@@H](O)[C@@H]1O` [N-(1-amino-2-methyl-1-oxopropan-2-yl)-6-(4-(2-methyl-5-((2S,3R,4R,5S,6R)-3,4,5-trihydroxy-6-(methylthio)tetrahydro-2H-pyran-2-yl)benzyl)phenyl)hexanamide]: the half-maximal inhibitory concentration (IC50) in test [1] is < 100 nM; in test [2] it was < 10 nM.
For `CS[C@H]1O[C@@H](c2ccc(C)c(Cc3ccc(CCCCCCC(=O)NC(C)(C)C(N)=O)cc3)c2)[C@H](O)[C@@H](O)[C@@H]1O` [N-(1-amino-2-methyl-1-oxopropan-2-yl)-7-(4-(2-methyl-5-((2S,3R,4R,5S,6R)-3,4,5-trihydroxy-6-(methylthio)tetrahydro-2H-pyran-2-yl)benzyl)phenyl)heptanamide], the half-maximal inhibitory concentration (IC50) in test [1] was < 100 nM; in test [2], < 10 nM.
Turning to `CS[C@H]1O[C@@H](c2ccc(C)c(Cc3ccc(OCCCC(=O)NC(C)(C)CO)cc3)c2)[C@H](O)[C@@H](O)[C@@H]1O` [N-(1-hydroxy-2-methylpropan-2-yl)-4-(4-(2-methyl-5-((2S,3R,4R,5S,6R)-3,4,5-trihydroxy-6-(methylthio)tetrahydro-2H-pyran-2-yl)benzyl)phenoxy)butanamide], the 50% inhibitory concentration (IC50) in test [1] and in test [2] was < 10 nM in each case.
On to `CS[C@H]1O[C@@H](c2ccc(C)c(Cc3ccc(CCCC(=O)NC(C)(C)CO)cc3)c2)[C@H](O)[C@@H](O)[C@@H]1O` [N-(1-hydroxy-2-methylpropan-2-yl)-4-(4-(2-methyl-5-((2S,3R,4R,5S,6R)-3,4,5-trihydroxy-6-(methylthio)tetrahydro-2H-pyran-2-yl)benzyl)phenyl)butanamide], for which the IC50 in test [1] and in test [2] was < 10 nM in each case.
As for `CS[C@H]1O[C@@H](c2ccc(C)c(Cc3ccc(CCCCC(=O)NC(C)(C)CO)cc3)c2)[C@H](O)[C@@H](O)[C@@H]1O` [N-(1-hydroxy-2-methylpropan-2-yl)-5-(4-(2-methyl-5-((2S,3R,4R,5S,6R)-3,4,5-trihydroxy-6-(methylthio)tetrahydro-2H-pyran-2-yl)benzyl)phenyl)pentanamide], the IC50 in test [1] and in test [2] was < 10 nM each time.
With `CS[C@H]1O[C@@H](c2ccc(C)c(Cc3ccc(CCCCCCC(=O)NC(C)(C)CO)cc3)c2)[C@H](O)[C@@H](O)[C@@H]1O` [N-(1-hydroxy-2-methylpropan-2-yl)-7-(4-(2-methyl-5-((2S,3R,4R,5S,6R)-3,4,5-trihydroxy-6-(methylthio)tetrahydro-2H-pyran-2-yl)benzyl)phenyl)heptanamide], the IC50 in test [1] is < 100 nM; in test [2], < 10 nM.
The corresponding values for `CS[C@H]1O[C@@H](c2ccc(C)c(Cc3ccc(OCCCC(=O)NCC(C)(C)C(=O)N4CCN(C)CC4)cc3)c2)[C@H](O)[C@@H](O)[C@@H]1O` [N-(2,2-dimethyl-3-(4-methylpiperazin-1-yl)-3-oxopropyl)-4-(4-(2-methyl-5-((2S,3R,4R,5S,6R)-3,4,5-trihydroxy-6-(methylthio)tetrahydro-2H-pyran-2-yl)benzyl)phenoxy)butanamide] are < 10 nM and < 10 nM.
The corresponding values for `CS[C@H]1O[C@@H](c2ccc(C)c(Cc3ccc(CCCC(=O)NCC(C)(C)C(=O)N4CCN(C)CC4)cc3)c2)[C@H](O)[C@@H](O)[C@@H]1O` [N-(2,2-dimethyl-3-(4-methylpiperazin-1-yl)-3-oxopropyl)-4-(4-(2-methyl-5-((2S,3R,4R,5S,6R)-3,4,5-trihydroxy-6-(methylthio)tetrahydro-2H-pyran-2-yl)benzyl)phenyl)butanamide] are < 10 nM and < 10 nM.
For `CS[C@H]1O[C@@H](c2ccc(C)c(Cc3ccc(CCCC(=O)NCC(C)(C)C(=O)NC4CCNCC4)cc3)c2)[C@H](O)[C@@H](O)[C@@H]1O` [N-(2,2-dimethyl-3-oxo-3-(piperidin-4-ylamino)propyl)-4-(4-(2-methyl-5-((2S,3R,4R,5S,6R)-3,4,5-trihydroxy-6-(methylthio)tetrahydro-2H-pyran-2-yl)benzyl)phenyl)butanamide] the same measures were < 100 nM and < 10 nM.
In the case of `CS[C@H]1O[C@@H](c2ccc(Cl)c(Cc3ccc(OCCNC(=O)C(C)(C)CO)cc3)c2)[C@H](O)[C@@H](O)[C@@H]1O` [N-(2-(4-(2-chloro-5-((2S,3R,4R,5S,6R)-3,4,5-trihydroxy-6-(methylthio)tetrahydro-2H-pyran-2-yl)benzyl)phenoxy)ethyl)-3-hydroxy-2,2-dimethylpropanamide], the IC50 in test [1] and in test [2] was < 10 nM each time.
For the compound `CS[C@H]1O[C@@H](c2ccc(Cl)c(Cc3ccc(OCCNC(=O)N4CCN(C)CC4)cc3)c2)[C@H](O)[C@@H](O)[C@@H]1O` [N-(2-(4-(2-chloro-5-((2S,3R,4R,5S,6R)-3,4,5-trihydroxy-6-(methylthio)tetrahydro-2H-pyran-2-yl)benzyl)phenoxy)ethyl)-4-methylpiperazine-1-carboxamide], the IC50 in test [1] and in test [2] was < 10 nM each time.
Consider `CCC(=O)NCCOc1ccc(Cc2cc([C@@H]3O[C@H](SC)[C@@H](O)[C@H](O)[C@H]3O)ccc2Cl)cc1` [N-(2-(4-(2-chloro-5-((2S,3R,4R,5S,6R)-3,4,5-trihydroxy-6-(methylthio)tetrahydro-2H-pyran-2-yl)benzyl)phenoxy)ethyl)propionamide], for which the half-maximal inhibitory concentration (IC50) in test [1] and in test [2] was < 10 nM throughout.
On to `CS[C@H]1O[C@@H](c2ccc(C)c(Cc3ccc(CCCC(=O)NCC(C)(C)N)cc3)c2)[C@H](O)[C@@H](O)[C@@H]1O` [N-(2-amino-2-methylpropyl)-4-(4-(2-methyl-5-((2S,3R,4R,5S,6R)-3,4,5-trihydroxy-6-(methylthio)tetrahydro-2H-pyran-2-yl)benzyl)phenyl)butanamide], for which the half-maximal inhibitory concentration (IC50) in test [1] and in test [2] was < 10 nM each time.
In the case of `CS[C@H]1O[C@@H](c2ccc(C)c(Cc3ccc(OCCCC(=O)NCC(N)=O)cc3)c2)[C@H](O)[C@@H](O)[C@@H]1O` [N-(2-amino-2-oxoethyl)-4-(4-(2-methyl-5-((2S,3R,4R,5S,6R)-3,4,5-trihydroxy-6-(methylthio)tetrahydro-2H-pyran-2-yl)benzyl)phenoxy)butanamide], the concentration for half-maximal inhibition (IC50) was < 100 nM in test [1] and < 10 nM in test [2].
For the compound `CS[C@H]1O[C@@H](c2ccc(C)c(Cc3ccc(OCCCC(=O)NCCO)cc3)c2)[C@H](O)[C@@H](O)[C@@H]1O` [N-(2-hydroxyethyl)-4-(4-(2-methyl-5-((2S,3R,4R,5S,6R)-3,4,5-trihydroxy-6-(methylthio)tetrahydro-2H-pyran-2-yl)benzyl)phenoxy)butanamide], the IC50 is < 100 nM in test [1] and < 10 nM in test [2].
The corresponding values for `Cc1ccc([C@@H]2O[C@H]([S+](C)[O-])[C@@H](O)[C@H](O)[C@H]2O)cc1Cc1ccc(CCCC(=O)NC(C)(C)C(=O)N2CCN(C)CC2)cc1` (stereo partly drawn) [N-(2-methyl-1-(4-methylpiperazin-1-yl)-1-oxopropan-2-yl)-4-(4-(2-methyl-5-((2S,3R,4R,5S,6R)-3,4,5-trihydroxy-6-(methylsulfinyl)tetrahydro-2H-pyran-2-yl)benzyl)phenyl)butanamide] are < 100 nM and < 10 nM.
Regarding `CS[C@H]1O[C@@H](c2ccc(C)c(Cc3ccc(OCCCC(=O)NC(C)(C)C(=O)N4CCN(C)CC4)cc3)c2)[C@H](O)[C@@H](O)[C@@H]1O` [N-(2-methyl-1-(4-methylpiperazin-1-yl)-1-oxopropan-2-yl)-4-(4-(2-methyl-5-((2S,3R,4R,5S,6R)-3,4,5-trihydroxy-6-(methylthio)tetrahydro-2H-pyran-2-yl)benzyl)phenoxy)butanamide], the half-inhibitory concentration (IC50) in test [1] and in test [2] was < 10 nM in each case.
Regarding `CS[C@H]1O[C@@H](c2ccc(C)c(Cc3ccc(CCCC(=O)NC(C)(C)C(=O)N4CCN(C)CC4)cc3)c2)[C@H](O)[C@@H](O)[C@@H]1O` [N-(2-methyl-1-(4-methylpiperazin-1-yl)-1-oxopropan-2-yl)-4-(4-(2-methyl-5-((2S,3R,4R,5S,6R)-3,4,5-trihydroxy-6-(methylthio)tetrahydro-2H-pyran-2-yl)benzyl)phenyl)butanamide], the IC50 in test [1] and in test [2] was < 10 nM throughout.
Take `CS[C@H]1O[C@@H](c2ccc(C)c(Cc3ccc(CCCCC(=O)NC(C)(C)C(=O)N4CCN(C)CC4)cc3)c2)[C@H](O)[C@@H](O)[C@@H]1O` [N-(2-methyl-1-(4-methylpiperazin-1-yl)-1-oxopropan-2-yl)-5-(4-(2-methyl-5-((2S,3R,4R,5S,6R)-3,4,5-trihydroxy-6-(methylthio)tetrahydro-2H-pyran-2-yl)benzyl)phenyl)pentanamide]: the IC50 in test [1] and in test [2] was < 10 nM each time.
